Measurements published in ChEMBL document CHEMBL3407338, “Synthesis and structure-activity relationship of novel 1,4-diazabicyclo[2.2.2]octane derivatives as potent antimicrobial agents” (Eur J Med Chem, 2015).
Values belong to the compound of their own block, whether it stands above or below them.

Key:
[1] = test system: Staphylococcus aureus; assay: Antimicrobial activity against 10^4 CFU/ml Staphylococcus aureus ATCC 25923 after 22 hrs by serial microdilution method; format: functional; conditions: ATCC 25923, 22 h
[2] = test system: Pseudomonas aeruginosa; assay: Antimicrobial activity against 10^4 CFU/ml Pseudomonas aeruginosa ATCC 9027 assessed as reduction in CFU/ml at measured at 10 ug/ml after 5 hrs by time-kill kinetic study relative to control; format: functional; design: scale not given: the % may be the effect or the level left
[3] = test system: Pseudomonas aeruginosa; assay: Antimicrobial activity against 10^4 CFU/ml Pseudomonas aeruginosa ATCC 9027 assessed as reduction in CFU/ml at measured at 10 ug/ml after 2.5 hrs by time-kill kinetic study relative to control; format: functional; design: scale not given: the % may be the effect or the level left
[4] = test system: Staphylococcus aureus; assay: Antimicrobial activity against 10^4 CFU/ml Staphylococcus aureus ATCC 25923 assessed as reduction in CFU/ml at measured at 10 ug/ml after 5 hrs by time-kill kinetic study relative to control; format: functional; design: scale not given: the % may be the effect or the level left
[5] = test system: Escherichia coli; assay: Antimicrobial activity against 10^7 CFU/ml Escherichia coli ATCC 25922 after 22 hrs by serial microdilution method; format: functional; conditions: ATCC 25922, 22 h
[6] = test system: Salmonella enterica; assay: Antimicrobial activity against 10^7 CFU/ml Salmonella enterica ATCC 14028 after 22 hrs by serial microdilution method; format: functional; conditions: ATCC 14028, 22 h
[7] = test system: Staphylococcus aureus; assay: Antimicrobial activity against 10^4 CFU/ml Staphylococcus aureus ATCC 25923 assessed as reduction in CFU/ml at measured at 10 ug/ml after 22 hrs by time-kill kinetic study relative to control; format: functional; design: scale not given: the % may be the effect or the level left
[8] = test system: Candida albicans; assay: Antimicrobial activity against Candida albicans ATCC 32354 at 1 ug/ml after 24 hrs by agar diffusion method; format: functional; conditions: ATCC 32354, 24 h, read-out: DIZ
[9] = test system: Pseudomonas aeruginosa; assay: Antimicrobial activity against 10^7 CFU/ml Pseudomonas aeruginosa ATCC 9027 assessed as reduction in CFU/ml at measured at 10 ug/ml after 2.5 hrs by time-kill kinetic study relative to control; format: functional; design: scale not given: the % may be the effect or the level left
[10] = test system: Candida albicans; assay: Antimicrobial activity against 10^4 CFU/ml Candida albicans ATCC 32354 after 22 hrs by serial microdilution method; format: functional; conditions: ATCC 32354, 22 h
[11] = test system: Bacillus subtilis; assay: Antimicrobial activity against Bacillus subtilis ATCC 6633 at 1 ug/ml after 24 hrs by agar diffusion method; format: functional; conditions: ATCC 6633, 24 h, read-out: DIZ
[12] = test system: Pseudomonas aeruginosa; assay: Antimicrobial activity against 10^7 CFU/ml Pseudomonas aeruginosa ATCC 9027 after 22 hrs by serial microdilution method; format: functional; conditions: ATCC 9027, 22 h
[13] = test system: Bacillus subtilis; assay: Antimicrobial activity against 10^7 CFU/ml Bacillus subtilis ATCC 6633 after 22 hrs by serial microdilution method; format: functional; conditions: ATCC 6633, 22 h
[14] = test system: Staphylococcus aureus; assay: Antimicrobial activity against Staphylococcus aureus ATCC 25923 at 1 ug/ml after 24 hrs by agar diffusion method; format: functional; conditions: ATCC 25923, 24 h, read-out: DIZ
[15] = test system: Bacillus subtilis; assay: Antimicrobial activity against 10^4 CFU/ml Bacillus subtilis ATCC 6633 after 22 hrs by serial microdilution method; format: functional; conditions: ATCC 6633, 22 h
[16] = test system: Candida albicans; assay: Antimicrobial activity against 10^7 CFU/ml Candida albicans ATCC 32354 after 22 hrs by serial microdilution method; format: functional; conditions: ATCC 32354, 22 h
[17] = test system: RPMI-8226; assay: Cytotoxicity against human RPMI8226 cells after 72 hrs by MTT assay; format: cell-based; conditions: RPMI-8226, 72 h
[18] = test system: Pseudomonas aeruginosa; assay: Antimicrobial activity against 10^4 CFU/ml Pseudomonas aeruginosa ATCC 9027 assessed as reduction in CFU/ml at measured at 10 ug/ml after 22 hrs by time-kill kinetic study relative to control; format: functional; design: scale not given: the % may be the effect or the level left
[19] = test system: Staphylococcus aureus; assay: Antimicrobial activity against 10^7 CFU/ml Staphylococcus aureus ATCC 25923 assessed as reduction in CFU/ml at measured at 10 ug/ml after 22 hrs by time-kill kinetic study relative to control; format: functional; design: scale not given: the % may be the effect or the level left
[20] = test system: MEF; assay: Cytotoxicity against mouse MEF cells after 72 hrs by MTT assay; format: cell-based
[21] = test system: Staphylococcus aureus; assay: Antimicrobial activity against 10^7 CFU/ml Staphylococcus aureus ATCC 25923 after 22 hrs by serial microdilution method; format: functional; conditions: ATCC 25923, 22 h
[22] = test system: Salmonella enterica; assay: Antimicrobial activity against Salmonella enterica ATCC 14028 at 1 ug/ml after 24 hrs by agar diffusion method; format: functional; conditions: ATCC 14028, 24 h, read-out: DIZ
[23] = test system: Salmonella enterica; assay: Antimicrobial activity against 10^4 CFU/ml Salmonella enterica ATCC 14028 after 22 hrs by serial microdilution method; format: functional; conditions: ATCC 14028, 22 h
[24] = test system: Escherichia coli; assay: Antimicrobial activity against 10^4 CFU/ml Escherichia coli ATCC 25922 after 22 hrs by serial microdilution method; format: functional; conditions: ATCC 25922, 22 h
[25] = test system: Escherichia coli; assay: Antimicrobial activity against Escherichia coli ATCC 25922 at 1 ug/ml after 24 hrs by agar diffusion method; format: functional; conditions: ATCC 25922, 24 h, read-out: DIZ
[26] = test system: HEK-293T; assay: Cytotoxicity against human HEK293T cells after 72 hrs by MTT assay; format: cell-based
[27] = test system: Pseudomonas aeruginosa; assay: Antimicrobial activity against 10^7 CFU/ml Pseudomonas aeruginosa ATCC 9027 assessed as reduction in CFU/ml at measured at 10 ug/ml after 5 hrs by time-kill kinetic study relative to control; format: functional; design: scale not given: the % may be the effect or the level left
[28] = test system: Staphylococcus aureus; assay: Antimicrobial activity against 10^4 CFU/ml Staphylococcus aureus ATCC 25923 assessed as reduction in CFU/ml at measured at 10 ug/ml after 2.5 hrs by time-kill kinetic study relative to control; format: functional; design: scale not given: the % may be the effect or the level left
[29] = test system: Pseudomonas aeruginosa; assay: Antimicrobial activity against 10^7 CFU/ml Pseudomonas aeruginosa ATCC 9027 assessed as reduction in CFU/ml at measured at 10 ug/ml after 22 hrs by time-kill kinetic study relative to control; format: functional; design: scale not given: the % may be the effect or the level left
[30] = Cytotoxicity against mouse LMTK cells after 72 hrs by MTT assay; format: cell-based; conditions: L-M(TK-)
[31] = test system: Staphylococcus aureus; assay: Antimicrobial activity against 10^7 CFU/ml Staphylococcus aureus ATCC 25923 assessed as reduction in CFU/ml at measured at 10 ug/ml after 5 hrs by time-kill kinetic study relative to control; format: functional; design: scale not given: the % may be the effect or the level left
[32] = test system: Pseudomonas aeruginosa; assay: Antimicrobial activity against Pseudomonas aeruginosa ATCC 9027 at 1 ug/ml after 24 hrs by agar diffusion method; format: functional; conditions: ATCC 9027, 24 h, read-out: DIZ
[33] = test system: Pseudomonas aeruginosa; assay: Antimicrobial activity against 10^4 CFU/ml Pseudomonas aeruginosa ATCC 9027 after 22 hrs by serial microdilution method; format: functional; conditions: ATCC 9027, 22 h
[34] = test system: Staphylococcus aureus; assay: Antimicrobial activity against 10^7 CFU/ml Staphylococcus aureus ATCC 25923 assessed as reduction in CFU/ml at measured at 10 ug/ml after 2.5 hrs by time-kill kinetic study relative to control; format: functional; design: scale not given: the % may be the effect or the level left

- MIC [1]: 3.1 µg/mL
- MIC [5]: 6.3 µg/mL
- MIC [6]: 12.5 µg/mL
- MIC [10]: < 1.6 µg/mL
- MIC [12]: 12.5 µg/mL
- MIC [13]: 3.1 µg/mL
- MIC [15]: < 1.6 µg/mL
- MIC [16]: < 1.6 µg/mL
- MIC [21]: 6.3 µg/mL
- MIC [23]: 12.5 µg/mL
- MIC [24]: 6.3 µg/mL
- MIC [33]: 1.6 µg/mL
Compound: CCCCCCCCCC[N+]12CC[N+](CCCCC[N+]34CC[N+](CCCCCCCCCC)(CC3)CC4)(CC1)CC2.[Br-].[Br-].[Br-].[Br-]
- MBC [1]: 12.5 µg/mL
- Activity [2]: 99.2%
- Activity [3]: 62.3%
- Activity [4]: 100%
- MBC [5]: 12.5 µg/mL
- MBC [6]: 50 µg/mL
- Activity [7]: 100%
- zone of inhibition at 1 µg/mL [8]: 10 mm
- Activity [9]: 0%
- MBC [10]: < 1.6 µg/mL
- zone of inhibition at 1 µg/mL [11]: 10 mm
- MBC [12]: 25 µg/mL
- MBC [13]: 3.1 µg/mL
- zone of inhibition at 1 µg/mL [14]: 10 mm
- MBC [15]: < 1.6 µg/mL
- MBC [16]: < 1.6 µg/mL
- IC50 [17]: 45.2 µg/mL
- Activity [18]: 25%
- Activity [19]: 100%
- IC50 [20]: 23.4 µg/mL
- MBC [21]: 6.3 µg/mL
- zone of inhibition at 1 µg/mL [22]: 7 mm
- MBC [23]: 25 µg/mL
- MBC [24]: 6.3 µg/mL
- zone of inhibition at 1 µg/mL [25]: 10 mm
- IC50 [26]: 93.8 µg/mL
- Activity [27]: 43%
- Activity [28]: 100%
- Activity [29]: 0%
- IC50 [30]: 56.4 µg/mL
- Activity [31]: 100%
- zone of inhibition at 1 µg/mL [32]: 6 mm
- MBC [33]: 1.6 µg/mL
- Activity [34]: 100%

- MIC [1]: 3.1 µg/mL
- MIC [5]: 6.3 µg/mL
- MIC [6]: 25 µg/mL
- MIC [10]: 3.1 µg/mL
- MIC [12]: 6.3 µg/mL
- MIC [13]: 3.1 µg/mL
- MIC [15]: < 1.6 µg/mL
- MIC [16]: 12.5 µg/mL
- MIC [21]: 6.3 µg/mL
- MIC [23]: 25 µg/mL
- MIC [24]: 3.1 µg/mL
- MIC [33]: < 1.6 µg/mL
Compound: CCCCCCCCCCCC[N+]12CC[N+](CCCCC[N+]34CC[N+](CCCCCCCCCCCC)(CC3)CC4)(CC1)CC2.[Br-].[Br-].[Cl-].[Cl-]
- MBC [1]: 6.3 µg/mL
- Activity [2]: 100%
- Activity [3]: 99.9%
- Activity [4]: 100%
- MBC [5]: 6.3 µg/mL
- MBC [6]: 50 µg/mL
- Activity [7]: 100%
- zone of inhibition at 1 µg/mL [8]: 10 mm
- Activity [9]: 100%
- MBC [10]: 6.3 µg/mL
- zone of inhibition at 1 µg/mL [11]: 10 mm
- MBC [12]: 6.3 µg/mL
- MBC [13]: 3.1 µg/mL
- zone of inhibition at 1 µg/mL [14]: 10 mm
- MBC [15]: < 1.6 µg/mL
- MBC [16]: 12.5 µg/mL
- IC50 [17]: 11.7 µg/mL
- Activity [18]: 100%
- Activity [19]: 100%
- IC50 [20]: 12.7 µg/mL
- MBC [21]: 12.5 µg/mL
- zone of inhibition at 1 µg/mL [22]: 7 mm
- MBC [23]: 25 µg/mL
- MBC [24]: 3.1 µg/mL
- zone of inhibition at 1 µg/mL [25]: 9 mm
- IC50 [26]: 23.4 µg/mL
- Activity [27]: 100%
- Activity [28]: 100%
- Activity [29]: 100%
- IC50 [30]: 25.6 µg/mL
- Activity [31]: 100%
- zone of inhibition at 1 µg/mL [32]: 7 mm
- MBC [33]: < 1.6 µg/mL
- Activity [34]: 100%
